Data published in US9567347B2, “Use of small molecule inhibitors targeting the interaction between RAC GTPase and p67(phox)” (CHILDREN'S HOSPITAL MEDICAL CENTER, priority 2012, dated 2017).

What was measured:
[1] = test system: undifferentiated HL-60 cells; experiment: apoptosis analysis by FACS (Annexin V / 7-AAD); format: cell-based, human; details: 20 or 100 μM
Experimental: Cells (5×10^5) were harvested and processed for Annexin V/7AAD staining according to manufacturer's protocol (Becton Dickinson). Flow cytometry data were acquired on a FACS Canto bench-top flow cytometer (Becton Dickinson) and the cell cycle distributions were determined by […] using Flo-Jo software (Bosco et al (2010) Blood 115, 3320-3328, hereby incorporated by reference in its entirety). For ROS production assay, primary murine neutrophils or dHL60 cells were incubated with compound for 2 hours prior to addition of H2-DCFDA according to manufacturer's instructions (Molecular Probes). Cells were then stimulated with 10 μM fMLP (Sigma), 1 mM CaCl2, and 1.5 mM MgCl2 for 15 minutes prior to wash and FACS analysis for mean fluorescence intensity. Non-fMLP stimulated control values were subtracted from all samples before normalization to fMLP-stimulated, vehicle control treated sample in order to display percent ROS inhibition.
In order to determine potency and cytotoxicity of Phox-I1 and Phox-I2, the levels of apoptosis were assessed in undifferentiated HL-60 cells treated with 20 or 100 μM Phox-I1, Phox-I2, or NSC23766 by FACS analysis for Annexin V (FIG. 4A).

[2] = test system: primary murine neutrophils; experiment: F-actin immunofluorescence, polarization upon fMLP stimulation; format: cell-based, mouse; details: 10 μM; untreated control about 80%
Experimental: Cells were pretreated with compound for 40 minutes prior to wash, and resuspended in HBSS with compound. Cells were allowed to adhere to fibronectin (Sigma Aldrich) coated glass coverslips (15 min) and then stimulated with 100 nM fMLP (3 min). Coverslips were then fixed with 3.7% paraformaldehyde (Sigma Aldrich) and then staining for […] was performed with rhodamine phalloidin per the manufacturer's instructions (Molecular Probes). Another method of addressing Rac-signaling specificity in neutrophils is by monitoring their ability to polarize actin to the leading edge upon fMLP stimulation. Neither Phox-I1, Phox-I2, nor an analog 13 (all at 10 μM), were able to block the Rac-mediated dynamic process of F-actin polarization to the leading edge of primary murine neutrophils as observed by F-actin immunofluorescence imaging (FIG. 4C, left panel). F-actin polarization was evident in about 80% of each treatment group of cells as in the control, untreated cells (FIG. 4C, right panel).

[3] = biological target: T1, p67^phox recombinant protein (1-200) (Homo sapiens, UniProt P19878); experiment: microscale thermophoresis binding to p67phox
T1 construct: using the pET30-HIS p67(1-212) plasmid; His; made in house; host or cells: E. coli BL21(DE3)
T1 sequence (P19878 1-212): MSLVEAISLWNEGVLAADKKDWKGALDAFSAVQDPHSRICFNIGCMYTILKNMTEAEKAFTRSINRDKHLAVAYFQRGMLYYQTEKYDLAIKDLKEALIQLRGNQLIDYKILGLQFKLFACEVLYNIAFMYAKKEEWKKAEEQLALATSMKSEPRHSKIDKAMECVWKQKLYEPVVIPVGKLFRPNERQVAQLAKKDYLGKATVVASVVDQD
Experimental: The p67^phox protein was expressed in BL21(DE3) bacteria (Stratagene) using the pET30-HIS p67(1-212) plasmid. Protein was purified using the QIAexpress Ni-NTA kit (Qiagen) or the GST Bind Resin Chromatography Kit (Novagen) for RacV12 and RacWT proteins. Mutagenesis was carried out using the Quick Change Lightening Site Directed Mutagenesis Kit (Stratagene).
Proteins were labeled for microscale thermophoresis using the Monolith NT Protein Labeling Kit Red (Nano Temper Technologies) as recommended by the manufacturer. Binding reactions were carried out using the Monolith NT. 115 (Nano Temper Technologies). Binding data was analyzed using Graphpad Prizm to estimate Kd values. The arbitrary fluorescence value from the thermophoresis plots for the smallest compound titration was subtracted from every other data point (Delta depletion) prior to normalization to a Vmax of 100. In thermophoresis plots where there was no binding, a curve could not be fit and therefore no Vmax could be assigned. In these instances the highest delta depletion value was set to 100 and all data were normalized accordingly.
To test the ability of compounds identified by preliminary screening to bind to the p67^phox protein in the N-terminal 200 amino acid region involved in Rac1-GTP interaction, microscale thermophoresis was employed. This technology probes for fluorescent changes in the hydration shell of molecules in order to measure protein-protein or protein small molecule interactions with high sensitivity in near-native conditions.

[4] = test system: dHL-60 cells; experiment: antioxidant (ROS scavenger) test in dHL-60 cells pre-stimulated with fMLP; format: cell-based, human; details: fMLP 30 min prior to treatment
Experimental: (A) Apoptosis analysis by FACS of HL-60 cells treated with compound or vehicle control for 2 hours prior to 7-AAD and Annexin V staining. (B) HL-60 cells from A were harvested and lysates were immunoblotted for levels of pPAK, and actin was used as a control for loading. (C) F-actin reorganization in freshly isolated fMLP-stimulated primary murine neutrophils was analyzed. […] Cells were exposed to a 10 μM dose of Phox-I1, Phox-I2, and Analog 13, and 200 nM nocodazole. (D) The effect of Phox-I on NOX4 mediated ROS production was tested in primary murine neutrophils transfected with a NOX4 expressing plasmid. 10 μM Phox-I1 was applied to the cells for 30 min prior to ROS assay by luminol chemiluminescence in the presence of HRP. The fMLP-stimulated ROS activity in the presence or absence of 10 uM Phox-I1 was measured in parallel. (E) The antioxidant abilities of these lead compounds were tested by prestimulating dHL-60 cells with fMLP for 30 minutes prior to treatment with Phox-I1 or Phox-I2. Levels of superoxide were analyzed by DCFDA assay and FACS. NAC, apocyanin, DPI, and NSC23766 treated cells served as controls. […] (G) For stability assay, DMSO-differentiated HL-60 cells were treated with 20 μM dose of compound for the indicated time period prior to fMLP stimulation and DCFDA ROS production assay by FACS analysis.
Phox-I1 was then applied to primary murine neutrophils expressing the constitutively active NOX4. […] To further rule out that Phox-I1 and Phox-I2 may simply act as scavengers of ROS, dHL-60 cells were pre-stimulated with fMLP for 30 min prior to treatment with Phox-I1 or Phox-I2.

[5] = test system: Pak; experiment: immunoblot of phosphorylated Pak; format: cell-based, human; details: 18 hr treatment
Experimental: Whole-cell lysates were prepared by cell extraction using lysis buffer containing 20 mM Tris-HCl (pH 7.6), 100 mM NaCl, 10 mM MgCl2, 1% Triton X-100, 0.2% sodium deoxycholate, 1 mM phenylmethylsulfonyl fluoride, 10 μg/mL of leupeptin, 1 μg/mL of aprotinin, and 1 mM dithiothreitol for 30 min. Equal amounts of protein, as determined by Bradford assay, were resolved by SDS-PAGE. Specific proteins were detected by standard 9 immunoblotting procedures using the following primary antibodies: (Cell Signaling, 1:500 dilution) phospho-PAK1 (Ser144)/PAK2 (Ser141), (Sigma-Aldrich 1:500) β-Actin.
To analyze the biochemical specificity of these lead inhibitors on the effector pathways of active Rac1, undifferentiated HL-60 cells were treated with Phox-I1, Phox-I2, or NSC23766 for 18 hr. Immunoblot of the cell lysates was performed to probe the activity of Pak, a Rac effector other than p67^phox (FIG. 4B).

Kd [3] [nM]	binding to p67^phox [3]	Compound	cell apoptosis (Annexin V) [1]	cells with F-actin polarization [2]	levels of superoxide already produced [4]	phosphorylated Pak levels [5]
~150	high affinity	O=[N+]([O-])c1cccc(C2Nc3ccc([N+](=O)[O-])cc3C3C=CCC32)c1 (centres unmarked) [Phox-I2]	no detectable effect on cell apoptosis	about 80%	do not affect	not
~100		COc1ccc2c(c1)C1C=C(c3ccccc3)NN1C(c1cccc([N+](=O)[O-])c1)O2 (centres unmarked) [Phox-I1]	no detectable effect on cell apoptosis	about 80%	do not affect	not
